Laboratory results reported in patent US10238623B2, “C14-hydroxyl esterified amino acid derivative of triptolide, and preparation method and use thereof” (HANGZHOU WEBEN PHARMACEUTICALS INC, priority 2015, dated 2019).
“And” between values parts separate entries of the source, which are not always exact repeats. Identical values can stand only once.

What was measured:
[1] = system: c-myc; experiment: Immunoblot of c-myc level in K562 cells, 48 h; type: cell-based, human; settings: 80 nM
Experimental: (§1) Well-grown leukemia cells were taken and seeded into wells of a 6-well cell culture plate, with a density of 1×10^6/ml. The medium was 1640 cell medium containing 10% fetal bovine serum. 14-D-Valine-TPL with different concentrations was added, and after being uniformly mixed, the plate was placed in a carbon dioxide (5% CO2) cell incubator, and incubated at 37° C. for 48 hours. Cellular proteins were then extracted, and the immunoblot technique was used to detect the expression level of c-myc.

[2] = system: human acute monocytic leukemia THP-1 cells; experiment: THP-1 subcutaneous xenograft in NOD/SCID mice; type: in vivo; settings: for Tumor weight: THP-1, individual mice, end of experiment
Experimental: (§2) 7-week old female NOD/SCID mice were taken and inoculated subcutaneously with 1×10^7 cells (0.2 ml) per mouse in axilla, with human acute myelogenous leukemia KG-1a cells on the left and human acute monocytic leukemia THP-1 cells on the right. When tumors grew to a tumor size of around 0.5 cm, the mice were randomized into groups with 3 mice each. An equivalent amount of PBS was used for the control group, and the 14-D-Valine-TPL group was divided into two groups with 0.2 mg/kg body weight and 0.4 mg/kg body weight: intragastric administration 2 times a day (one at 8 a.m. and one at 4 p.m.) for consecutive 14 days of treatment. An observation was made for total 30 days, during which the conditions of the mice such as tumor size, weight, activity, diet, and the like were measured. At the end of the experiment, the mice were sacrificed, tumor tissues were taken and the tumors were weighed, and major organs and tissues of the mice such as liver, spleen, heart, lung, large intestine, small intestine, and the like were examined.

[3] = system: THP-1; experiment: MTT growth inhibition, THP-1 cells, 72 h; type: cell-based; settings: Homo sapiens, THP-1, MTT
Experimental: (§3) 5000 well-grown leukemia cells were taken and seeded into wells of a 96-well cell culture plate. The medium was 1640 cell medium containing 10% fetal bovine serum. 14-D-Valine-TPL with different concentrations was added, and after being uniformly mixed, the plate was placed in a carbon dioxide (5% CO2) cell incubator, and incubated at 37° C. for 72 hours. The concentration of live cells was then determined using the MTT assay. In this experiment, the cell viability in the control group (without the compound treatment) was set to be 100%, and the cell viability (%) after the action of the compound and the half maximal growth inhibitory concentration of leukemia cells at 72 hours (IC50 value at 72 hours) were calculated.

[4] = system: human acute myelogenous leukemia KG-1a cells; experiment: KG-1a subcutaneous xenograft in NOD/SCID mice; type: in vivo; settings: for Tumor weight: KG-1a, individual mice, end of experiment
Experimental: as §2
as §2, with “the left.” for “the left and human acute monocytic leukemia THP-1 cells on the right.”, “around 50-100 mm^3,” for “around 0.5 cm,”, “the TPL-LLV” for “the 14-D-Valine-TPL”, “with 0.23” for “with 0.2”, “and 0.46” for “and 0.4”, “intragastric administration,” for “intragastric administration”
as §2, with “the left.” for “the left and human acute monocytic leukemia THP-1 cells on the right.”, “around 50-100 mm^3,” for “around 0.5 cm,”, “the TPL-DLV” for “the 14-D-Valine-TPL”, “with 0.23” for “with 0.2”, “and 0.46” for “and 0.4”, “intragastric administration,” for “intragastric administration”
as §2, with “the left.” for “the left and human acute monocytic leukemia THP-1 cells on the right.”, “around 50-100 mm^3,” for “around 0.5 cm,”, “the TPL-DLV” for “the 14-D-Valine-TPL”, “with 0.32” for “with 0.2”, “and 0.64” for “and 0.4”, “intragastric administration,” for “intragastric administration”

[5] = molecular target: T1, XPB (Homo sapiens, UniProt P19447); experiment: Immunoblot of XPB level in THP-1 cells, 48 h; type: cell-based; settings: 160 nM
T1 construct: endogenous in cells; host or cells: THP-1
Experimental: as §1, with “levels” for “level”, “XPB and Pol II.” for “c-myc.”

[6] = system: HL-60; experiment: MTT growth inhibition, HL-60 cells, 72 h; type: cell-based; settings: Homo sapiens, HL-60, MTT
Experimental: as §3

[7] = trifluoroacetate 0.2 mg/kg intragastric 2 times a day, 14 days, listed as DV
[8] = trifluoroacetate 0.4 mg/kg intragastric 2 times a day, 14 days
[9] = dose of 0.4 mg per kilogram of the body weight

T1 sequence (P19447 whole entry): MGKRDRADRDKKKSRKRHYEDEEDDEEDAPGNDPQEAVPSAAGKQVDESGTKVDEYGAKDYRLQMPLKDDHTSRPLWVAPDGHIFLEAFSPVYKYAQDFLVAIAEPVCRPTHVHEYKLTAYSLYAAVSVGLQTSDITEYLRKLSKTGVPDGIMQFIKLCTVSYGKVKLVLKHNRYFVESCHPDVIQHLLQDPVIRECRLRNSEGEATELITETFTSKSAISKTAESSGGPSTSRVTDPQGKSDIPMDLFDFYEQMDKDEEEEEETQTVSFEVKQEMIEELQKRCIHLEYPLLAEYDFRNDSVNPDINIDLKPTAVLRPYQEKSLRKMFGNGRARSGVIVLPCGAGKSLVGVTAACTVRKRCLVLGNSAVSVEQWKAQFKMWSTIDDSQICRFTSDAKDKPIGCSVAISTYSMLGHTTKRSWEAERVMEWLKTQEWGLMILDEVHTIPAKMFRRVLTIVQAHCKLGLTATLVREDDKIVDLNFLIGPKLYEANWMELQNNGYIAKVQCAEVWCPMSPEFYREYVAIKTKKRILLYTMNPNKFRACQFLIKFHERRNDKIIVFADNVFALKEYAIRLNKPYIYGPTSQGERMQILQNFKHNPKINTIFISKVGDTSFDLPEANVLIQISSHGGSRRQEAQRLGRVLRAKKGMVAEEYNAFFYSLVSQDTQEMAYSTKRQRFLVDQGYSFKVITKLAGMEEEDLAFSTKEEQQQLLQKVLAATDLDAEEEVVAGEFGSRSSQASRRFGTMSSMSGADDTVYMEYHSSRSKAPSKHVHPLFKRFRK

Compound: CC(C)[C@@H](N)C(=O)O[C@@H]1[C@@]2(C(C)C)O[C@H]2[C@@H]2O[C@]23[C@]12O[C@H]2C[C@H]1C2=C(CC[C@@]13C)C(=O)OC2 [14-D-Valine-TPL, 14-Dextro-Valine-Triptolide]
- level of c-myc (immunoblot) [1]: significantly inhibited
- Tumor weight [2, 7]: 0 g (3×) and 0.21 g and 0.06 g and 0.28 g
- Tumor weight [2, 8]: 0 g
- growth of THP-1 in mice in vivo (in words) ([2]; THP-1 xenograft, intragastric 2 times a day, 14 days, dose-dependent effect): significantly inhibit the growth
- regression of THP-1 xenograft tumors [2, 9]: complete regression
- IC50 [3]: 16 nM
- growth of KG-1a in mice in vivo (in words) ([4]; KG-1a xenograft, intragastric 2 times a day, 14 days, dose-dependent effect): significantly inhibit the growth
- Tumor weight [4, 7]: 0.42 g and 1.49 g and 0.06 g and 0.98 g and 0.2 g and 0.5 g
- Tumor weight [4, 8]: 0 g
- regression of KG-1a xenograft tumors [4, 9]: complete regression
- level of XPB (immunoblot) [5]: significantly inhibited
- IC50 [6]: 65.8 nM
